Measurements published in US20250032478A1 (SURGE Therapeutics, Inc., priority 2021, published 2025).

What was measured:
[1] = Hygroscopicity of solid form; type: physicochemical
[2] = Visual solubility assessment of Resiquimod Form I; type: physicochemical; settings: room temperature
[3] = Solubility in sodium phosphate buffered saline comprising 10 wt % poloxamer 407; type: physicochemical
[4] = test system: 4T1-Luc2 breast cancer cells; assay: Survival of tumor resection mice, composition placed at tumor resection site; type: in vivo, female BALB/c mice
Method: 4T1-Luc2 breast cancer cells were cultured in RPMI-1640 medium, with 10% fetal bovine serum (FBS) and 1% penicillin/streptomycin. All cells were cultured in a 37° C. in a humidified incubator, with 5% Co2.
All animal experiments were performed using 6-8 weeks old female BALB/c mice (Jackson Laboratories, #000651). For animal survival studies, 10^5 4T1-Luc2 cells were inoculated orthotopically into the fourth mammary fat pad of a mouse. Mice were size-matched and randomly assigned to treatment groups, and surgery was performed on day 10 or day 12 after tumor inoculation. Tumor sizes were measured with calipers. For primary tumor resection, mice were anesthetized with 2% isoflurane, the tumor was resected, and a hydrogel was placed in the surgical site at the time of surgery.
In some embodiments, female BALB/cJs mice were inoculated orthotopically with 100,000 breast cancer cells (e.g., 4T1-Luc2 cells).

[5] = in polymer combination of 8-12.5% or 6-11% (w/w) poloxamer (e.g. 10% P407) and 1-5% (w/w) HA (e.g. 4% HA 119 KDa), at tumor resection site, FIG. 29

## CCOCc1nc2c(N)nc3ccccc3c2n1CC(C)(C)O [Resiquimod Form I, Resiquimod]
[1]
  hygroscopicity: notably low hygroscopicity
[2]; 1-Butanol, 0.5 mL added to 10 mg
  Observation (visual solubility): Light hazy solution
[2]; 1-Propanol, 0.5 mL added to 10 mg
  Observation (visual solubility): Light hazy solution
[2]; 2-Butanol, 0.5 mL added to 10 mg
  Observation (visual solubility): Light hazy solution
[2]; 2-Ethoxyethanol, 0.25-0.5 mL added to 10 mg
  Observation (visual solubility): Light hazy solution throughout
[2]; 2-Methoxyethanol, 0.25-0.5 mL added to 10 mg
  Observation (visual solubility): Light hazy solution throughout
[2]; 2-Methyl THF, 0.25 mL added to 10 mg
  Observation (visual solubility): Clear solution
[2]; 2-Propanol, 0.5 mL added to 10 mg
  Observation (visual solubility): Suspension
[2]; Acetone, 0.5 mL added to 10 mg
  Observation (visual solubility): Suspension
[2]; Acetonitrile, 0.5 mL added to 10 mg
  Observation (visual solubility): Suspension
[2]; Amyl alcohol, 0.5 mL added to 10 mg
  Observation (visual solubility): Light hazy solution
[2]; Anisole, 0.5 mL added to 10 mg
  Observation (visual solubility): Suspension
[2]; CPME, 0.5 mL added to 10 mg
  Observation (visual solubility): Suspension
[2]; Chloroform, 0.5 mL added to 10 mg
  Observation (visual solubility): Light hazy solution
[2]; Cyclohexane, 0.5 mL added to 10 mg
  Observation (visual solubility): Suspension
[2]; DMP, 0.5 mL added to 10 mg
  Observation (visual solubility): Suspension
[2]; Dichloromethane, 0.5 mL added to 10 mg
  Observation (visual solubility): Light hazy solution
[2]; Diethyl ether, 0.5 mL added to 10 mg
  Observation (visual solubility): Suspension
[2]; Ethanol, 0.25-0.5 mL added to 10 mg
  Observation (visual solubility): Light hazy solution throughout
[2]; Ethyl acetate, 0.5 mL added to 10 mg
  Observation (visual solubility): Suspension
[2]; Heptane, 0.5 mL added to 10 mg
  Observation (visual solubility): Suspension
[2]; Hexane, 0.5 mL added to 10 mg
  Observation (visual solubility): Suspension
[2]; Isobutanol, 0.5 mL added to 10 mg
  Observation (visual solubility): Light hazy solution
[2]; Isobutyl acetate, 0.5 mL added to 10 mg
  Observation (visual solubility): Suspension
[2]; Isopropyl acetate, 0.5 mL added to 10 mg
  Observation (visual solubility): Suspension
[2]; MEK, 0.5 mL added to 10 mg
  Observation (visual solubility): Suspension
[2]; MIBK, 0.5 mL added to 10 mg
  Observation (visual solubility): Suspension
[2]; MIPK, 0.5 mL added to 10 mg
  Observation (visual solubility): Suspension
[2]; MTBE, 0.5 mL added to 10 mg
  Observation (visual solubility): Suspension
[2]; Methanol, 0.25-0.5 mL added to 10 mg
  Observation (visual solubility): Light hazy solution throughout
[2]; Methyl acetate, 0.5 mL added to 10 mg
  Observation (visual solubility): Suspension
[2]; Nitromethane, 0.5 mL added to 10 mg
  Observation (visual solubility): Suspension
[2]; Octane, 0.5 mL added to 10 mg
  Observation (visual solubility): Suspension
[2]; Pentane, 0.5 mL added to 10 mg
  Observation (visual solubility): Suspension
[2]; Petroleum Ether, 0.5 mL added to 10 mg
  Observation (visual solubility): Suspension
[2]; Propylene glycol, 0.25-0.5 mL added to 10 mg
  Observation (visual solubility): Light hazy solution throughout
[2]; THF, 0.25-0.5 mL added to 10 mg
  Observation (visual solubility): Light hazy solution
[2]; Toluene, 0.5 mL added to 10 mg
  Observation (visual solubility): Suspension
[2]; Water, 0.5 mL added to 10 mg
  Observation (visual solubility): Suspension
[2]; Xylene, 0.5 mL added to 10 mg
  Observation (visual solubility): Suspension
[2]; p-Dioxane, 0.5 mL added to 10 mg
  Observation (visual solubility): Light hazy solution
[3]
  solubility: increased solubility

## CCOCc1nc2c(N)nc3ccccc3c2n1CC(C)(C)O [resiquimod, Resiquimod]
[4]; in crosslinked hydrogel of 8-13.5% (w/w) Poloxamer (e.g. 10% P407) and 0.6-1.5% (w/w) HA (e.g. 1% HA 1.5 MDa), FIG. 27A-E
  efficacy vs chemically-crosslinked hyaluronic acid hydrogel (HyStem) incorporated with resiquimod: comparable to or better than
[4]; in crosslinked hydrogel of 8-13.5% or 6-11% (w/w) Poloxamer (e.g. 10% P407) and 0.6-1.5% (w/w) HA (e.g. 1% HA 1.5 MDa), at tumor resection site, FIG. 27A-E
  survival time longer than control group receiving the hydrogel without resiquimod: at least 50%
[4]; in crosslinked hydrogel of 8-13.5% or 6-11% (w/w) Poloxamer and 0.6-1.5% (w/w) HA, at tumor resection site, FIG. 27A-E
  survival rate vs control group receiving the hydrogel without resiquimod: much higher survival rate
[4]; in polymer combination of 8-12.5% or 6-11% (w/w) poloxamer (e.g. 8%, 10% or 12.5% P407) and 1.2-2.75% (w/w) HA (e.g. 1.625% or 2.25% HA 730 KDa), at tumor resection site, FIG. 28A-D
  survival time vs control group receiving polymer combination without resiquimod: survived over a longer period of time
[4]; [5]
  survival rate vs control group receiving polymer combination without resiquimod: higher survival rate
  survival time vs control group receiving polymer combination without resiquimod: survived over a longer period of time
[4]; in polymer combination of 8-12.5% or 6-11% (w/w) poloxamer and 1.2-2.75% (w/w) HA 730 KDa, at tumor resection site, FIG. 28A-D
  survival rate vs control group receiving polymer combination without resiquimod: higher survival rate
